The source of these data is PubChem BioAssay AID2060328 (Molecular Pharmacology Branch, DTP, NCI, 2025).

Values joined by “and” are separate entries in the source; they are usually repeats but may differ in a detail not shown here. Equal entries are not always repeated.

For the test, the system named is MDA-MB-231 multicell spheroids, viability (%T/C). Nature of the test: Anticancer human tumor MDA-MB-231 cell line growth inhibition [IpAb].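 For all read-outs here: viability read after seven days of drug exposure.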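 For viability, T/C: 100% = DMSO vehicle control viability.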 To be noted: for viability, T/C: stronger effect = lower value. The essentials: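 Multi-cell spheroids of 60% tumour cells, 25% HUVEC and 15% MSC in ultra-low-attachment U-bottom wells, treated with agents combined with ipatasertib or abemaciclib. Half-log ranges top out near clinical Cmax, or 10 microM when Cmax is unknown.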

Setting [1] is: curve of first compound, second compound 0.1 µM.
[2] abbreviates: curve of first compound, second compound 0.316 µM.
[3] abbreviates: curve of first compound, second compound 1 µM.
[4] abbreviates: curve of first compound, second compound 3.16 µM.
[5] abbreviates: curve of first compound, second compound 10 µM.
Setting [6] is: second compound 0.1 µM, first compound 0.0316 µM.
Setting [7] is: second compound 0.1 µM, first compound 0.1 µM.
Where [8] appears, read: second compound 0.316 µM, first compound 0.0316 µM.
Setting [9] is: second compound 0.316 µM, first compound 0.1 µM.
Setting [10] is: second compound 1 µM, first compound 0.0316 µM.
Setting [11] is: second compound 1 µM, first compound 0.1 µM.
Setting [12] is: second compound 3.16 µM, first compound 0.0316 µM.
The mark [13] stands for this setting: second compound 3.16 µM, first compound 0.1 µM.
Where [14] appears, read: second compound 10 µM, first compound 0.0316 µM.
The mark [15] stands for this setting: second compound 10 µM, first compound 0.1 µM.
Where [16] appears, read: second compound 0.1 µM, first compound 0.316 µM.
Setting [17] is: second compound 0.1 µM, first compound 1 µM.
The mark [18] stands for this setting: second compound 0.1 µM, first compound 3.16 µM.
Setting [19] is: second compound 0.1 µM, first compound 10 µM.
Where [20] appears, read: second compound 0.316 µM, first compound 0.316 µM.
The mark [21] stands for this setting: second compound 0.316 µM, first compound 1 µM.
[22] abbreviates: second compound 0.316 µM, first compound 3.16 µM.
The mark [23] stands for this setting: second compound 0.316 µM, first compound 10 µM.
Setting [24] is: second compound 1 µM, first compound 0.316 µM.
Where [25] appears, read: second compound 1 µM, first compound 1 µM.
The mark [26] stands for this setting: second compound 1 µM, first compound 3.16 µM.
Where [27] appears, read: second compound 1 µM, first compound 10 µM.

For the compound `Cn1ncnc1[C@H]1c2n[nH]c(=O)c3cc(F)cc(c23)N[C@@H]1c1ccc(F)cc1` + CC(C)NCC(C(=O)N1CCN(c2ncnc3c2C(C)CC3O)CC1)c1ccc(Cl)cc1, the IC50 under setting [1] was > 100 nM; the IC50 under setting [2] is > 100 nM; the IC50 under setting [3] is > 100 nM; the concentration for half-maximal inhibition (IC50) under setting [4] amounted to 2.35 nM; the IC50 under setting [5] was < 0.316 nM. The viability, T/C (second compound 0.1 µM, first compound 0.000316 µM) was 96.6%; the viability, T/C (second compound 0.1 µM, first compound 0.001 µM) was 89.4%; the viability, T/C (second compound 0.1 µM, first compound 0.00316 µM) is 81.9%; the viability, T/C (second compound 0.1 µM, first compound 0.01 µM) was 78.9%; the viability, T/C under setting [6] is 76.6%; the viability, T/C under setting [7] is 73.1%. Also, the viability, T/C (second compound 0.316 µM, first compound 0.000316 µM) is 83.9%; the viability, T/C (second compound 0.316 µM, first compound 0.001 µM) was 77%; the viability, T/C (second compound 0.316 µM, first compound 0.00316 µM) was 71.8%; the viability, T/C (second compound 0.316 µM, first compound 0.01 µM) was 70.1%; the viability, T/C under setting [8] was 69.1%; the viability, T/C under setting [9] is 62.1%. Also, the viability, T/C is 70.4% (second compound 1 µM, first compound 0.000316 µM); 68.9% (second compound 1 µM, first compound 0.001 µM); 59.2% (second compound 1 µM, first compound 0.00316 µM); 58% (second compound 1 µM, first compound 0.01 µM); 56.8% under setting [10]; 56.5% under setting [11]. Moreover, the viability, T/C (second compound 3.16 µM, first compound 0.000316 µM) was 54.6%; the viability, T/C (second compound 3.16 µM, first compound 0.001 µM) is 54.3%; the viability, T/C (second compound 3.16 µM, first compound 0.00316 µM) is 49.6%; the viability, T/C (second compound 3.16 µM, first compound 0.01 µM) is 44.9%; the viability, T/C under setting [12] is 45.7%; the viability, T/C under setting [13] was 47%. In addition, the viability, T/C (second compound 10 µM, first compound 0.000316 µM) was 42.3%; the viability, T/C (second compound 10 µM, first compound 0.001 µM) was 41%; the viability, T/C (second compound 10 µM, first compound 0.00316 µM) was 38.5%; the viability, T/C (second compound 10 µM, first compound 0.01 µM) is 33.8%; the viability, T/C under setting [14] was 34.9%; the viability, T/C under setting [15] is 34.1%.

With `Cn1nccc1Nc1nccc(-c2ccn(C(CO)c3ccc(Cl)c(F)c3)c(=O)c2)n1` (stereo unspecified) + CC(C)NCC(C(=O)N1CCN(c2ncnc3c2C(C)CC3O)CC1)c1ccc(Cl)cc1, the 50% inhibitory concentration (IC50) is, setting by setting: under setting [1], 259 nM; under setting [2], 45.9 nM; under setting [3], < 31.6 nM; under setting [4], < 31.6 nM; under setting [5], < 31.6 nM. The viability, T/C reads like this: under setting [6], 64.3%; under setting [7], 53.5%; under setting [16], 48.7%; under setting [17], 43.1%; under setting [18], 25.2%; under setting [19], 18.7%. In addition, the viability, T/C is 52.8% under setting [8]; 43.8% under setting [9]; 38.1% under setting [20]; 29.3% under setting [21]; 23.5% under setting [22]; 18% under setting [23]. Moreover, the viability, T/C reads like this: under setting [10], 38.7%; under setting [11], 36.1%; under setting [24], 32.2%; under setting [25], 27.8%; under setting [26], 16.3%; under setting [27], 15.3%. For the same compound, the viability, T/C by setting is: under setting [12], 34.3%; under setting [13], 28.7%; (second compound 3.16 µM, first compound 0.316 µM) 27.1%; (second compound 3.16 µM, first compound 1 µM) 21.5%; (second compound 3.16 µM, first compound 3.16 µM) 12.9%; (second compound 3.16 µM, first compound 10 µM) 10.4%. For the same compound, the viability, T/C under setting [14] was 24.2%; the viability, T/C under setting [15] is 22.8%; the viability, T/C (second compound 10 µM, first compound 0.316 µM) was 16.7%; the viability, T/C (second compound 10 µM, first compound 1 µM) was 14.9%; the viability, T/C (second compound 10 µM, first compound 3.16 µM) is 9%; the viability, T/C (second compound 10 µM, first compound 10 µM) was 6.42%.

As for `Cn1nccc1Nc1nccc(-c2ccn(C(CO)c3ccc(Cl)c(F)c3)c(=O)c2)n1` (stereo unspecified), the viability, T/C is 71% and 65.7% (compound 0.0316 µM); 59% and 53.1% (compound 0.1 µM); 49.6% and 47.1% (compound 0.316 µM); 48% and 38% (compound 1 µM); 30.3% and 33.5% (compound 3.16 µM); 23.5% and 21.3% (compound 10 µM). In addition, where the note is “curve of compound”, the IC50 was 406 nM and 209 nM.

In the case of `Cn1ncnc1[C@H]1c2n[nH]c(=O)c3cc(F)cc(c23)N[C@@H]1c1ccc(F)cc1`, the viability, T/C reads like this: (compound 0.000316 µM) 99.2% and 96.9%; (compound 0.001 µM) 92.1% and 94%; (compound 0.00316 µM) 81.4% and 85.3%; (compound 0.01 µM) 79.3% and 79.6%; (compound 0.0316 µM) 77.7% and 75.4%; (compound 0.1 µM) 67.3% and 69.8%. The IC50 (curve of compound) was > 100 nM.

`CC(=O)c1c(C)c2cnc(Nc3ccc(N4CCNCC4)cn3)nc2n(C2CCCC2)c1=O`: the viability, T/C by setting is: (compound 0.000949 µM) 103% and 105%; (compound 0.003 µM) 88.5% and 88.2%; (compound 0.00949 µM) 74% and 79.3%; (compound 0.03 µM) 57.7% and 57.8%; (compound 0.0949 µM) 42.3% and 46%; (compound 0.3 µM) 38.7% and 38.9%. Further, the IC50 (curve of compound) is 56.4 nM and 70.1 nM.

As to `Cc1nc(NC(=O)N2CCCC2C(N)=O)sc1-c1ccnc(C(C)(C)C(F)(F)F)c1` (stereo unspecified) + CCN1CCN(Cc2ccc(Nc3ncc(F)c(-c4cc(F)c5nc(C)n(C(C)C)c5c4)n3)nc2)CC1, the IC50 is, setting by setting: (curve of first compound, second compound 0.01 µM) > 10000 nM; (curve of first compound, second compound 0.0316 µM) 159 nM; under setting [1], < 31.6 nM; under setting [2], < 31.6 nM; under setting [3], < 31.6 nM. In addition, the viability, T/C is 79.3% (second compound 0.01 µM, first compound 0.0316 µM); 61.5% (second compound 0.01 µM, first compound 0.1 µM); 56% (second compound 0.01 µM, first compound 0.316 µM); 55.2% (second compound 0.01 µM, first compound 1 µM); 59.1% (second compound 0.01 µM, first compound 3.16 µM); 55.4% (second compound 0.01 µM, first compound 10 µM). For the same compound, the viability, T/C reads like this: (second compound 0.0316 µM, first compound 0.0316 µM) 64%; (second compound 0.0316 µM, first compound 0.1 µM) 52.2%; (second compound 0.0316 µM, first compound 0.316 µM) 46.6%; (second compound 0.0316 µM, first compound 1 µM) 45.9%; (second compound 0.0316 µM, first compound 3.16 µM) 47.3%; (second compound 0.0316 µM, first compound 10 µM) 45.4%. In addition, the viability, T/C is 46.1% under setting [6]; 41.8% under setting [7]; 35.8% under setting [16]; 38.4% under setting [17]; 41.5% under setting [18]; 41.8% under setting [19]. Besides, the viability, T/C was 43.7% under setting [8]; 39.3% under setting [9]; 37.3% under setting [20]; 37.7% under setting [21]; 39.4% under setting [22]; 45.3% under setting [23]. The viability, T/C by setting is: under setting [10], 50.8%; under setting [11], 48.2%; under setting [24], 44.6%; under setting [25], 45.9%; under setting [26], 53.9%; under setting [27], 61%.

As a reminder, the IC50 is the concentration needed to halve the response being measured. By viability, T/C is commonly meant the result in the treated group divided by that in the control group, in per cent.
